PMC7126465 (Bioorganic & Medicinal Chemistry, 2017)
Where two headings read alike, the source gives them in different places.

Assays:
[1] = test system: human embryonic lung (HEL) cells; experiment: Cytotoxicity, alteration of cell morphology; format: cell-based; details: microscopically detectable alteration of cell morphology
HSV = experiment: organism not typed; format: cell-based, herpes simplex virus; details: for EC50: HEL, read-out: EC50 range against HSV
VZV = experiment: microbe, parasite or virus in culture; format: cell-based, varicella-zoster virus; details: for EC50: Human alphaherpesvirus 3, HEL, read-out: EC50 range against VZV
[2] = test system: human embryonic lung (HEL) cells; experiment: Cytostatic activity, inhibition of HEL cell growth; format: cell-based
Vaccinia virus = experiment: microbe, parasite or virus in culture; format: cell-based, vaccinia virus Lederle strain; details: for EC50: read-out: EC50 (HEL) Vaccinia virus
[3] = test system: herpesviruses (HSV, VZV, HCMV); experiment: Anti-herpesvirus activity overall; format: cell-based; details: for Anti-herpesvirus activity (in words): HEL cells
HCMV = experiment: microbe, parasite or virus in culture; format: cell-based, human cytomegalovirus; details: for EC50: read-out: EC50 range against HCMV
HCMV (Davis) = experiment: Antiviral assay, HCMV; format: cell-based, human cytomegalovirus; details: read-out: EC50 (HEL) HCMV (Davis); HEL cells
VZV TK− (07-1) = format: cell-based, varicella-zoster virus; details: read-out: EC50 (HEL) VZV TK− (07-1)
HCMV (AD-169) = experiment: Antiviral assay, HCMV; format: cell-based, human cytomegalovirus; details: read-out: EC50 (HEL) HCMV (AD-169); HEL cells
HSV-2 (G) = experiment: Antiviral CPE inhibition, HSV-2; format: cell-based, herpes simplex virus type 2; details: read-out: EC50 (HEL) HSV-2 (G); HEL cells
VZV TK+ (Oka) = format: cell-based, varicella-zoster virus; details: read-out: EC50 (HEL) VZV TK+ (Oka); HEL cells
HSV-1 TK− KOS ACVr = experiment: Antiviral CPE inhibition, TK- HSV-1 KOS ACVr in HEL cells; format: cell-based, herpes simplex virus type 1; details: read-out: EC50 (HEL) HSV-1 TK− KOS ACVr

Nc1nc2c(ncn2COCCO)c(=O)[nH]1 [Acyclovir, reference compound]
Cytotoxicity MCC (minimum cytotoxic concentration) [1]: >440 µM

O=c1[nH]c(=O)n([C@H]2C[C@H](O)[C@@H](CO)O2)cc1/C=C/Br [Brivudin, reference compound]
Cytotoxicity MCC (minimum cytotoxic concentration) [1]: 300 µM

Nc1ccn(C[C@@H](CO)OCP(=O)(O)O)c(=O)n1.O.O [Cidofovir, reference compound]
Cytotoxicity MCC (minimum cytotoxic concentration) [1]: ≥300 µM

Nc1cc(OCCOCP(=O)(O)O)nc(N)n1 [Compound 1, 2,4-diamino-6-[2-(phosphonomethoxy)ethoxy]pyrimidine]
Selectivity index (SI, ratio CC50/EC50) HSV (HSV; range over HSV strains): 1.7–4.5
Cytotoxicity MCC (minimum cytotoxic concentration) [1]: >100 µM
Selectivity index (SI, ratio CC50/EC50) VZV (VZV; range over VZV strains): 19–44

CC(C)(C)C(=O)OCOP(=O)(COCCOc1cc(N)nc(N)n1)OCOC(=O)C(C)(C)C [Compound 2, Bis(pivaloyloxymethyl) ester of 2,4-diamino-6-[2-(phosphonomethoxy)ethoxy]pyrimidine]
Fold more cytostatic than PMEO-DAPy [2]: 5.5 fold
EC50 (Vaccinia virus; Orthopoxvirus vaccinia, HEL): ≥ 20 µM
Cytotoxicity MCC (minimum cytotoxic concentration) [1]: ≥100 µM
Fold more active than PMEO-DAPy (anti-herpesvirus activity) [3]: 2 to 4.5 fold

CC(C)(C)C(=O)OCOP(=O)([O-])COCCOc1cc(N)nc(N)n1.[Na+] [Compound 3, Pivaloyloxymethyl ester of 2,4-diamino-6-[2-(phosphonomethoxy)ethoxy]-pyrimidine]
Cytotoxicity MCC (minimum cytotoxic concentration) [1]: >100 µM
Anti-herpesvirus activity (in words) [3]: potency and selectivity virtually identical to PMEO-DAPy

CCOC(=O)[C@H](C)NP(=O)(COCCOc1cc(N)nc(N)n1)N[C@@H](C)C(=O)OCC [Compound 5, Bis(L-alanineethyl ester) prodrug of 2,4-diamino-6-[2-(phosphonomethoxy)ethoxy]pyrimidine]
Fold more active than parental drug PMEO-DAPy (HSV) (HSV): 6–20 fold
Selectivity index (SI, ratio CC50/EC50) HSV (HSV; range over HSV strains): 4–15
EC50 (HCMV; Human betaherpesvirus 5, HEL): 17 to 29 µM
Selectivity index (SI, ratio CC50/EC50) HCMV (HCMV; range over HCMV strains): ≤ 1
Anti-vaccinia virus activity (in words) (Vaccinia virus): very low anti-vaccinia virus activity without selectivity
Cytotoxicity MCC (minimum cytotoxic concentration) [1]: 217 µM
Fold more active than parental drug PMEO-DAPy (VZV) (VZV): 3–16 fold
Selectivity index (SI, ratio CC50/EC50) VZV (VZV; range over VZV strains): 15–52

CC(C)OC(=O)OCOP(=O)(COCCn1cnc(N)nc1=O)OCOC(=O)OC(C)C [Compound 7, Bis[(isopropoxycarbonyl)oxymethyl] ester of 1-[2-(phosphonomethoxy)ethyl]-5-azacytosine]
Cytotoxicity MCC (minimum cytotoxic concentration) [1]: >100 µM

CC(C)OC(=O)OCOP(=O)(O)COCCn1cnc(N)nc1=O [Compound 8, (Isopropoxycarbonyl)oxymethyl ester of 1-[2-(phosphonomethoxy)ethyl]-5-azacytosine]
Cytotoxicity MCC (minimum cytotoxic concentration) [1]: >100 µM
Anti-herpesvirus activity (in words) [3]: minimal or no anti-herpesvirus activities

CC(C)(C)C(=O)OCOP(=O)(COCCn1cnc(N)nc1=O)OCOC(=O)C(C)(C)C [Compound 9, Bis(pivaloyloxymethyl) ester of 1-[2-(phosphonomethoxy)ethyl]-5-azacytosine]
EC50 (HSV): 0.7 to 1.3 µM
Selectivity index (SI, ratio CC50/EC50) HSV (HSV; range over HSV strains): 37–63
EC50 (HCMV; Human betaherpesvirus 5, HEL): 1 to 3 µM
Selectivity index (SI, ratio CC50/EC50) HCMV (HCMV; range over HCMV strains): 14–47
Cytotoxicity MCC (minimum cytotoxic concentration) [1]: 209 µM
EC50 (VZV): 0.7 to 1.3 µM
Selectivity index (SI, ratio CC50/EC50) VZV (VZV; range over VZV strains): 35–71

CC(C)(C)C(=O)OCOP(=O)([O-])COCCn1cnc(N)nc1=O.[Na+] [Compound 10, Pivaloyloxymethyl ester of 1-[2-(phosphonomethoxy)ethyl]-5-azacytosine, sodium salt]
Cytotoxicity MCC (minimum cytotoxic concentration) [1]: >275 µM
Anti-herpesvirus activity (in words) [3]: minimal or no anti-herpesvirus activities

CCOC(=O)[C@H](Cc1ccccc1)NP(=O)(COCCn1cnc(N)nc1=O)N[C@@H](Cc1ccccc1)C(=O)OCC [Compound 12, Bis(L-phenylalanineethyl ester) prodrug of 1-[2-(phosphonomethoxy)ethyl]-5-azacytosine]
EC50 (HSV): 32 to 42 µM
EC50 (HCMV; Human betaherpesvirus 5, HEL): 7.5 to 15.5 µM
Cytotoxicity MCC (minimum cytotoxic concentration) [1]: >100 µM
EC50 (VZV): 27 to 29 µM

CCOC(=O)[C@H](Cc1ccccc1)NP(=O)(O)COCCn1cnc(N)nc1=O [Compound 13, (L-Phenylalanine ethyl ester) prodrug of 1-[2-(phosphonomethoxy)ethyl]-5-azacytosine]
Cytotoxicity MCC (minimum cytotoxic concentration) [1]: >100 µM
Anti-herpesvirus activity (in words) [3]: lacked activity against herpesviruses

COP(=O)(O)COCCn1cnc(N)nc1=O [Compound 14, Methyl ester of [2-(phosphonomethoxy)ethyl]-5-azacytosine]
Cytotoxicity MCC (minimum cytotoxic concentration) [1]: >100 µM
Anti-herpesvirus activity (in words) [3]: lacked activity against herpesviruses

CCCCCCCCCCCCCCCCCCOCCOP(=O)(COCCn1cnc(N)nc1=O)OCCOCCCCCCCCCCCCCCCCCC [Compound 15, Bis(octadecyloxyethyl) ester of 1-[2-(phosphonomethoxy)ethyl]-5-azacytosine]
Cytotoxicity MCC (minimum cytotoxic concentration) [1]: 20 µM
Anti-herpesvirus activity (in words) [3]: deprived of anti-herpesvirus properties

CCCCCCCCCCCCCCCCCCOCCNc1ncn(CCOCP(=O)(OCCOCCCCCCCCCCCCCCCCCC)OCCOCCCCCCCCCCCCCCCCCC)c(=O)n1 [Compound 16, Bis(octadecyloxyethyl) ester of N^4-octadecyloxyethyl-1-[2-(phosphonomethoxy)ethyl]-5-azacytosine]
Cytotoxicity MCC (minimum cytotoxic concentration) [1]: 100 µM
Anti-herpesvirus activity (in words) [3]: deprived of anti-herpesvirus properties

CCCCCCCCCCCCCCCCCCOCCOP(=O)(O)COCCn1cnc(N)nc1=O [Compound 17, Octadecyloxyethyl ester of 1-[2-(phosphonomethoxy)ethyl]-5-azacytosine]
EC50 (HSV): 0.15 to 0.35 µM
Selectivity index (SI, ratio CC50/EC50) HSV (HSV; range over HSV strains): 226–528
EC50 (HCMV; Human betaherpesvirus 5, HEL): 0.24 to 1.12 µM
Selectivity index (SI, ratio CC50/EC50) HCMV (HCMV; range over HCMV strains): 71–330
Cytotoxicity MCC (minimum cytotoxic concentration) [1]: 100 ± 0 µM
EC50 (VZV): 0.32 to 0.8 µM
Selectivity index (SI, ratio CC50/EC50) VZV (VZV; range over VZV strains): 100–248

CCCCCCCCCCCCCCCCNC(=O)[C@@H](N)Cc1ccc(OP(=O)(COCCn2cnc(N)nc2=O)Oc2ccc(C[C@H](N)C(=O)NCCCCCCCCCCCCCCCC)cc2)cc1 [Compound 23, Bis(Hexadecylamido-L-tyrosyl) ester of 1-[2-(phosphonomethoxy)ethyl]-5-azacytosine]
Selectivity index (SI, ratio CC50/EC50) HSV (HSV): 45–68
Selectivity index (SI, ratio CC50/EC50) HCMV (HCMV): 13–56
Cytotoxicity MCC (minimum cytotoxic concentration) [1]: 60 ± 57 µM
Selectivity index (SI, ratio CC50/EC50) VZV (VZV): 47–93

Nc1nc(O)c2ncn(COC(CO)CO)c2n1 [Ganciclovir, reference compound]
Cytotoxicity MCC (minimum cytotoxic concentration) [1]: >350 µM

Bis[(isopropoxycarbonyl)oxymethyl] ester of 2,4-diamino-6-[2-(phosphonomethoxy)ethoxy]pyrimidine [Compound 4]
EC50 (HCMV (Davis)): 86.3 ± 5.4 µM
EC50 (VZV TK− (07-1)): 0.29 ± 0.19 µM
EC50 (HCMV (AD-169)): 90.1 µM
Fold more active than parental drug PMEO-DAPy (HSV) (HSV): 6–20 fold
Selectivity index (SI, ratio CC50/EC50) HSV (HSV; range over HSV strains): 4–15
Selectivity index (SI, ratio CC50/EC50) HCMV (HCMV; range over HCMV strains): ≤ 1
EC50 (HCMV; range over HCMV strains, HEL cells): 86 to 90 µM
EC50 (HSV-2 (G)): 1.01 ± 0.86 µM
EC50 (VZV TK+ (Oka)): 0.32 ± 0.37 µM
Anti-vaccinia virus activity (in words) (Vaccinia virus): very low anti-vaccinia virus activity without selectivity
EC50 (Vaccinia virus): 160 ± 60 µM
EC50 (HSV-1 TK− KOS ACVr): 3.7 ± 3 µM
Cytotoxicity MCC (minimum cytotoxic concentration) [1]: >202 µM
Fold more active than parental drug PMEO-DAPy (VZV) (VZV): 3–16 fold
Selectivity index (SI, ratio CC50/EC50) VZV (VZV; range over VZV strains): 15–52
